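Five concentrations, 48 hours, 96-well plates. TGI is the concentration that stops growth completely.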
How the values were obtained:
Assay in all cases: growth of human tumour cells (NCI), 48 h
[1] = tested on: COLO 205 colon
[2] = tested on: MCF7 breast
[3] = tested on: MDA-MB-435
[4] = tested on: KM12 colon
[5] = tested on: HCT-15 colon
[6] = tested on: SW-620 colon
[7] = tested on: K-562 leukemia
[8] = tested on: LOX IMVI melanoma
[9] = tested on: A498 renal
[10] = tested on: OVCAR-4 ovarian
[11] = tested on: SF-539 CNS
[12] = tested on: SR leukemia
[13] = tested on: MALME-3M melanoma
[14] = tested on: IGROV1 ovarian
[15] = tested on: HCT-116 colon
[16] = tested on: 786-0 renal
[17] = tested on: NCI-H226 lung
[18] = tested on: NCI-H522 lung
[19] = tested on: U251 CNS
[20] = tested on: MDA-N
[21] = tested on: HOP-92 NSCLC
[22] = tested on: M14 melanoma
[23] = tested on: CCRF-CEM leukemia
[24] = tested on: TK-10 renal
[25] = tested on: HOP-62 NSCLC
[26] = tested on: SNB-75 CNS
[27] = tested on: RXF 393 renal
[28] = tested on: SK-MEL-2 melanoma
[29] = tested on: NCI/ADR-RES ovarian
[30] = tested on: CAKI-1 renal
[31] = tested on: MDA-MB-231 breast
[32] = tested on: NCI-H460 lung
[33] = tested on: SK-OV-3 ovarian
[34] = tested on: HS 578T breast
[35] = tested on: OVCAR-8 ovarian
[36] = tested on: SN12C renal
[37] = tested on: HL-60(TB) leukemia
[38] = tested on: SK-MEL-5 melanoma
[39] = tested on: RPMI-8226 leukemia
[40] = tested on: OVCAR-3 ovarian
[41] = tested on: BT-549 breast
[42] = tested on: T-47D breast
[43] = tested on: MOLT-4 leukemia
[44] = tested on: SK-MEL-28 melanoma
[45] = tested on: SF-295 CNS
[46] = tested on: NCI-H23 lung
[47] = tested on: A549 NSCLC
[48] = tested on: PC-3 prostate
[49] = tested on: DU-145 prostate
[50] = tested on: UACC-62 melanoma
[51] = tested on: SNB-19 CNS
[52] = tested on: ACHN renal
[53] = tested on: UACC-257 melanoma
[54] = tested on: EKVX NSCLC
[55] = tested on: HT29 colon
[56] = tested on: OVCAR-5 ovarian
[57] = tested on: HCC-2998 colon
[58] = tested on: UO-31 renal
[59] = tested on: SF-268 CNS

Measured: TGI

NC(=O)CC(N)C(N)=O (stereo unspecified)
not listed: [54] | [55] | [56] | [57] | [58] | [59]
> 100 µM: all other assays above

CCOC(=O)C(C(=O)OCC)C1C=CCC2c3ccccc3COCC21 (stereo unspecified)
48.9 µM: [1]
71.2 µM: [18]
96.1 µM: [29]
36 µM: [38]
56.8 µM: [37]
not listed: [12]
> 100 µM: all other assays above

From PubChem BioAssay (NCI)
